The values below are quoted from earlier work in US20030082168A1, “Compositions and methods for facilitating weight loss” (priority 2001, published 2003).

Where two headings read alike, the source gives them in different places.

The subject of data set [1] is intercapsular brown adipose tissue (IBAT). The following applies: caffeine alone.
For data set [2] the following is noted: 2% CLA in diet; P=0.01.
For data set [3] the following is noted: for Weight of control group above CLA group: after 6 weeks.

As for `Cn1c(=O)c2c(ncn2C)n(C)c1=O` [Caffeine], the IBAT oxygen uptake entry in data set [1] is reported as “does not increase”.
As to Conjugated linoleic acid [CLA], the “Subcutaneous fat, change vs sunflower oil” value in data set [2] is −6.8%. For the same molecule, the “Weight of control group above CLA group” value in data set [3] (high-fat diet, P<0.0001) is 5.7 g; in data set [3] (low-fat diet, P<0.005) it was 3.2 g. The “Energy intake, growth rate, adipose depot weight and carcass lipid” value in data set [3] (independent of diet composition) was “significantly reduced”. Also, the Metabolic rate result in data set [3] (mouse, in vivo) is recorded as “significantly increased”. Moreover, the Nighttime respiratory quotient entry in data set [3] (mouse, in vivo) is reported as “decreased”.
